Assay results reported in PubChem BioAssay (NCI).
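These data come from cells grown in 96-well plates and exposed to compound for 48 hours at five concentrations. GI50 marks 50% less growth. TGI: total growth inhibition.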

Assays:
Experiment in all cases: inhibition of tumour cell growth, NCI panel, 48 h
786-0 renal = test system: 786-0 renal
A498 renal = test system: A498 renal
A549 NSCLC = test system: A549 NSCLC
ACHN renal = test system: ACHN renal
BT-549 breast = test system: BT-549 breast
CAKI-1 renal = test system: CAKI-1 renal
CCRF-CEM leukemia = test system: CCRF-CEM leukemia
COLO 205 colon = test system: COLO 205 colon
DU-145 prostate = test system: DU-145 prostate
EKVX NSCLC = test system: EKVX NSCLC
HCC-2998 colon = test system: HCC-2998 colon
HCT-116 colon = test system: HCT-116 colon
HCT-15 colon = test system: HCT-15 colon
HOP-62 NSCLC = test system: HOP-62 NSCLC
HOP-92 NSCLC = test system: HOP-92 NSCLC
HS 578T breast = test system: HS 578T breast
HT29 colon = test system: HT29 colon
IGROV1 ovarian = test system: IGROV1 ovarian
K-562 leukemia = test system: K-562 leukemia
KM12 colon = test system: KM12 colon
LOX IMVI melanoma = test system: LOX IMVI melanoma
M14 melanoma = test system: M14 melanoma
MCF7 breast = test system: MCF7 breast
MDA-MB-231 breast = test system: MDA-MB-231 breast
MDA-MB-435 = test system: MDA-MB-435
MOLT-4 leukemia = test system: MOLT-4 leukemia
NCI-H226 lung = test system: NCI-H226 lung
NCI-H23 lung = test system: NCI-H23 lung
NCI-H460 lung = test system: NCI-H460 lung
NCI-H522 lung = test system: NCI-H522 lung
NCI/ADR-RES ovarian = test system: NCI/ADR-RES ovarian
OVCAR-3 ovarian = test system: OVCAR-3 ovarian
OVCAR-4 ovarian = test system: OVCAR-4 ovarian
OVCAR-5 ovarian = test system: OVCAR-5 ovarian
OVCAR-8 ovarian = test system: OVCAR-8 ovarian
PC-3 prostate = test system: PC-3 prostate
RPMI-8226 leukemia = test system: RPMI-8226 leukemia
RXF 393 renal = test system: RXF 393 renal
SF-268 CNS = test system: SF-268 CNS
SF-295 CNS = test system: SF-295 CNS
SF-539 CNS = test system: SF-539 CNS
SK-MEL-2 melanoma = test system: SK-MEL-2 melanoma
SK-MEL-28 melanoma = test system: SK-MEL-28 melanoma
SK-MEL-5 melanoma = test system: SK-MEL-5 melanoma
SK-OV-3 ovarian = test system: SK-OV-3 ovarian
SN12C renal = test system: SN12C renal
SNB-19 CNS = test system: SNB-19 CNS
SNB-75 CNS = test system: SNB-75 CNS
SW-620 colon = test system: SW-620 colon
T-47D breast = test system: T-47D breast
TK-10 renal = test system: TK-10 renal
U251 CNS = test system: U251 CNS
UACC-257 melanoma = test system: UACC-257 melanoma
UACC-62 melanoma = test system: UACC-62 melanoma
UO-31 renal = test system: UO-31 renal

With `CC(=O)O[C@H]1[C@@H]2OC(=O)C3(CC3)C2C[C@H]2O[C@]2(C)CC/C=C(\C)CCC[C@@H]1C` (stereo not given in full) the GI50 (786-0 renal) was 25.8 µM, the TGI (786-0 renal) was 92 µM and the GI50 (A498 renal) was 27.4 µM. The TGI (A498 renal) was over 100 µM, the GI50 (A549 NSCLC) was 20.3 µM and the TGI (A549 NSCLC) was 46 µM. For the same molecule, the GI50 (ACHN renal) was 21 µM, the TGI (ACHN renal) was 44.2 µM and the GI50 (BT-549 breast) was 18.7 µM. For the same molecule, the TGI (BT-549 breast) was 46.2 µM, the GI50 (CAKI-1 renal) was 19.8 µM and the TGI (CAKI-1 renal) was 42.1 µM. It also gave a GI50 (CCRF-CEM leukemia) of 17.2 µM, a TGI (CCRF-CEM leukemia) of 37.8 µM and a GI50 (COLO 205 colon) of 34 µM. It also gave a TGI (COLO 205 colon) of over 100 µM, a GI50 (DU-145 prostate) of 19.6 µM and a TGI (DU-145 prostate) of 39.1 µM. The GI50 (EKVX NSCLC) was 30.1 µM, the TGI (EKVX NSCLC) was over 100 µM and the GI50 (HCC-2998 colon) was 19.8 µM. It also gave a TGI (HCC-2998 colon) of 50.9 µM, a GI50 (HCT-116 colon) of 15.7 µM and a TGI (HCT-116 colon) of 37.3 µM. The GI50 (HCT-15 colon) was 26.8 µM, the TGI (HCT-15 colon) was 70 µM and the GI50 (HOP-62 NSCLC) was 37.7 µM. It also gave a TGI (HOP-62 NSCLC) of over 100 µM, a GI50 (HOP-92 NSCLC) of 4.58 µM and a TGI (HOP-92 NSCLC) of 63 µM. The GI50 (HS 578T breast) was 19 µM, the TGI (HS 578T breast) was 50.2 µM and the GI50 (HT29 colon) was 36.8 µM. For the same molecule, the TGI (HT29 colon) was over 100 µM, the GI50 (IGROV1 ovarian) was 16.4 µM and the TGI (IGROV1 ovarian) was 45.2 µM. For the same molecule, the GI50 (K-562 leukemia) was 14.3 µM, the TGI (K-562 leukemia) was 37.7 µM and the GI50 (KM12 colon) was 18.4 µM. For the same molecule, the TGI (KM12 colon) was 36.5 µM, the GI50 (LOX IMVI melanoma) was 15.8 µM and the TGI (LOX IMVI melanoma) was 46.2 µM. It also gave a GI50 (M14 melanoma) of 19.1 µM, a TGI (M14 melanoma) of 43.6 µM and a GI50 (MCF7 breast) of 37.1 µM. It also gave a TGI (MCF7 breast) of over 100 µM, a GI50 (MDA-MB-231 breast) of 20.5 µM and a TGI (MDA-MB-231 breast) of 48.7 µM. For the same molecule, the GI50 (MDA-MB-435) was 24.2 µM, the TGI (MDA-MB-435) was 54.3 µM and the GI50 (MOLT-4 leukemia) was 18.1 µM. It also gave a TGI (MOLT-4 leukemia) of 41.3 µM, a GI50 (NCI-H226 lung) of 24.1 µM and a TGI (NCI-H226 lung) of 66.5 µM. It also gave a GI50 (NCI-H23 lung) of 22.1 µM, a TGI (NCI-H23 lung) of over 100 µM and a GI50 (NCI-H460 lung) of 24.6 µM. It also gave a TGI (NCI-H460 lung) of 58.2 µM, a GI50 (NCI-H522 lung) of 21.1 µM and a TGI (NCI-H522 lung) of 48.4 µM. The GI50 (NCI/ADR-RES ovarian) was 23.3 µM, the TGI (NCI/ADR-RES ovarian) was 67.5 µM and the GI50 (OVCAR-3 ovarian) was 17.5 µM. For the same molecule, the TGI (OVCAR-3 ovarian) was 32.9 µM, the GI50 (OVCAR-4 ovarian) was 38 µM and the TGI (OVCAR-4 ovarian) was over 100 µM. It also gave a GI50 (OVCAR-5 ovarian) of 76.5 µM, a TGI (OVCAR-5 ovarian) of over 100 µM and a GI50 (OVCAR-8 ovarian) of 27.8 µM. For the same molecule, the TGI (OVCAR-8 ovarian) was over 100 µM, the GI50 (PC-3 prostate) was 19 µM and the TGI (PC-3 prostate) was 49.6 µM. The GI50 (RPMI-8226 leukemia) was 23.8 µM, the TGI (RPMI-8226 leukemia) was 55.2 µM and the GI50 (RXF 393 renal) was 14.8 µM. The TGI (RXF 393 renal) was 37.7 µM, the GI50 (SF-268 CNS) was 27.7 µM and the TGI (SF-268 CNS) was over 100 µM. It also gave a GI50 (SF-295 CNS) of 40.2 µM, a TGI (SF-295 CNS) of over 100 µM and a GI50 (SF-539 CNS) of 23.3 µM. The TGI (SF-539 CNS) was 50.8 µM, the GI50 (SK-MEL-2 melanoma) was 19.5 µM and the TGI (SK-MEL-2 melanoma) was 49.5 µM. It also gave a GI50 (SK-MEL-28 melanoma) of 36.7 µM, a TGI (SK-MEL-28 melanoma) of over 100 µM and a GI50 (SK-MEL-5 melanoma) of 14.8 µM. The TGI (SK-MEL-5 melanoma) was 29 µM, the GI50 (SK-OV-3 ovarian) was 80.5 µM and the TGI (SK-OV-3 ovarian) was over 100 µM. The GI50 (SN12C renal) was 22.7 µM, the TGI (SN12C renal) was 49.7 µM and the GI50 (SNB-19 CNS) was 62.4 µM. For the same molecule, the TGI (SNB-19 CNS) was over 100 µM, the GI50 (SNB-75 CNS) was 38.1 µM and the TGI (SNB-75 CNS) was over 100 µM. The GI50 (SW-620 colon) was 23.7 µM, the TGI (SW-620 colon) was 55.9 µM and the GI50 (T-47D breast) was 43.7 µM. It also gave a TGI (T-47D breast) of over 100 µM, a GI50 (TK-10 renal) of 23.9 µM and a TGI (TK-10 renal) of 46.9 µM. The GI50 (U251 CNS) was 22.6 µM, the TGI (U251 CNS) was 49.9 µM and the GI50 (UACC-257 melanoma) was 43.4 µM. For the same molecule, the TGI (UACC-257 melanoma) was over 100 µM, the GI50 (UACC-62 melanoma) was 17.1 µM and the TGI (UACC-62 melanoma) was 46.1 µM. For the same molecule, the GI50 (UO-31 renal) was 25.5 µM and the TGI (UO-31 renal) was 64.2 µM.
